Source: publication PMC10239507, “Development of allosteric and selective CDK2 inhibitors for contraception with negative cooperativity to cyclin binding” (Nature Communications, 2023)

Columns and labels:
Test in all cases: biochemical
[1] = target: T1, 371 kinases (kinase named in each endpoint) (Homo sapiens, UniProt P04629); conditions: TRKA
T1 construct: purchased Reaction Biology

[2] = target: T2, 371 kinases (kinase named in each endpoint) (Homo sapiens, UniProt P51451); conditions: BLK
T2 construct: purchased Reaction Biology

[3] = target: T3, 371 kinases (kinase named in each endpoint) (Homo sapiens, UniProt Q16620); conditions: TRKB
T3 construct: purchased Reaction Biology

[4] = target: T4, 371 kinases (kinase named in each endpoint) (Homo sapiens, UniProt Q9HBY8); conditions: SGK2
T4 construct: purchased Reaction Biology

[5] = target: T5, 371 kinases (kinase named in each endpoint) (Homo sapiens, UniProt O43353); conditions: RIPK2
T5 construct: purchased Reaction Biology

[6] = target: T6, 371 kinases (kinase named in each endpoint) (Homo sapiens, UniProt Q02779); conditions: MLK2/MAP3K10
T6 construct: purchased Reaction Biology

[7] = target: T7, 371 kinases (kinase named in each endpoint) (Homo sapiens, UniProt Q9BZL6); conditions: PKD2/PRKD2
T7 construct: purchased Reaction Biology

[8] = target: T8, 371 kinases (kinase named in each endpoint) (Homo sapiens, UniProt Q9HAZ1); conditions: CLK4
T8 construct: purchased Reaction Biology

[9] = target: T9, 371 kinases (kinase named in each endpoint) (Homo sapiens, UniProt Q5TCX8); conditions: MLK4
T9 construct: purchased Reaction Biology

[10] = target: T10, 371 kinases (kinase named in each endpoint) (Homo sapiens, UniProt P45983); conditions: JNK1
T10 construct: purchased Reaction Biology

[11] = target: T11, 371 kinases (kinase named in each endpoint) (Homo sapiens, UniProt O43318); conditions: TAK1
T11 construct: purchased Reaction Biology

[12] = target: T12, 371 kinases (kinase named in each endpoint) (Homo sapiens, UniProt Q9UBE8); conditions: NLK
T12 construct: purchased Reaction Biology

[13] = target: T13, 371 kinases (kinase named in each endpoint) (Homo sapiens, UniProt Q9BXA6); conditions: SSTK/TSSK6
T13 construct: purchased Reaction Biology

[14] = target: T14, 371 kinases (kinase named in each endpoint) (Homo sapiens, UniProt Q9H093); conditions: SNARK/NUAK2
T14 construct: purchased Reaction Biology

[15] = target: T15, 371 kinases (kinase named in each endpoint) (Homo sapiens, UniProt Q04912); conditions: RON/MST1R
T15 construct: purchased Reaction Biology

[16] = target: T16, 371 kinases (kinase named in each endpoint) (Homo sapiens, UniProt Q16832); conditions: DDR2
T16 construct: purchased Reaction Biology

[17] = target: T17, 371 kinases (kinase named in each endpoint) (Homo sapiens, UniProt O96017); conditions: CHK2
T17 construct: purchased Reaction Biology

[18] = target: T18, 371 kinases (kinase named in each endpoint) (Homo sapiens, UniProt Q9HC98); conditions: NEK6
T18 construct: purchased Reaction Biology

[19] = target: T19, 371 kinases (kinase named in each endpoint) (Homo sapiens, UniProt Q9NYY3); conditions: PLK2
T19 construct: purchased Reaction Biology

[20] = target: T20, 371 kinases (kinase named in each endpoint) (Homo sapiens, UniProt P22607); conditions: FGFR3
T20 construct: purchased Reaction Biology

[21] = target: T21, 371 kinases (kinase named in each endpoint) (Homo sapiens, UniProt P10721); conditions: C-KIT
T21 construct: purchased Reaction Biology

[22] = target: T22, 371 kinases (kinase named in each endpoint) (Homo sapiens, UniProt P05129); conditions: PKCG
T22 construct: purchased Reaction Biology

[23] = target: T23, 371 kinases (kinase named in each endpoint) (Homo sapiens, UniProt P54762); conditions: EPHB1
T23 construct: purchased Reaction Biology

[24] = target: T24, 371 kinases (kinase named in each endpoint) (Homo sapiens, UniProt Q9BUB5); conditions: MNK1
T24 construct: purchased Reaction Biology

[25] = target: T25, 371 kinases (kinase named in each endpoint) (Homo sapiens, UniProt O14965); conditions: AURORA A
T25 construct: purchased Reaction Biology

[26] = target: T26, 371 kinases (kinase named in each endpoint) (Homo sapiens, UniProt P49137); conditions: MAPKAPK2
T26 construct: purchased Reaction Biology

[27] = target: T27, 371 kinases (kinase named in each endpoint) (Homo sapiens, UniProt Q9UL54); conditions: TAOK2/TAO1
T27 construct: purchased Reaction Biology

[28] = target: T28, 371 kinases (kinase named in each endpoint) (Homo sapiens, UniProt P09769); conditions: FGR
T28 construct: purchased Reaction Biology

[29] = target: T29, 371 kinases (kinase named in each endpoint) (Homo sapiens, UniProt O00506); conditions: STK25/YSK1
T29 construct: purchased Reaction Biology

[30] = target: T30, 371 kinases (kinase named in each endpoint) (Homo sapiens, UniProt O75582); conditions: MSK1/RPS6KA5
T30 construct: purchased Reaction Biology

[31] = target: T31, 371 kinases (kinase named in each endpoint) (Homo sapiens, UniProt Q9UPE1); conditions: MSSK1/STK23
T31 construct: purchased Reaction Biology

[32] = target: T32, 371 kinases (kinase named in each endpoint) (Homo sapiens, UniProt P07949); conditions: RET
T32 construct: purchased Reaction Biology

[33] = target: T33, 371 kinases (kinase named in each endpoint) (Homo sapiens, UniProt P11802)
T33 construct: purchased Reaction Biology

[34] = target: T34, 371 kinases (kinase named in each endpoint) (Homo sapiens, UniProt P15735); conditions: PHKG2
T34 construct: purchased Reaction Biology

[35] = target: T35, 371 kinases (kinase named in each endpoint) (Homo sapiens, UniProt Q12866); conditions: C-MER
T35 construct: purchased Reaction Biology

[36] = target: T36, 371 kinases (kinase named in each endpoint) (Homo sapiens, UniProt P06493)
T36 construct: purchased Reaction Biology
T36 sequence (P06493 whole entry): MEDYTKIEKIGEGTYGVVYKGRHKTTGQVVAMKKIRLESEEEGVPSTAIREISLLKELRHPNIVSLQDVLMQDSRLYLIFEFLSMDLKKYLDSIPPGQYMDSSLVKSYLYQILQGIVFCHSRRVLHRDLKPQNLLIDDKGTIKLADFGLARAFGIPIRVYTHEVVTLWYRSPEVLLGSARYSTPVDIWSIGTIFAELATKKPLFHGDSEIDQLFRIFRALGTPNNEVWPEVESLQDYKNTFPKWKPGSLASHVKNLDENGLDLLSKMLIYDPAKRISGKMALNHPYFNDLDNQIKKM

T33 sequence (P11802 whole entry): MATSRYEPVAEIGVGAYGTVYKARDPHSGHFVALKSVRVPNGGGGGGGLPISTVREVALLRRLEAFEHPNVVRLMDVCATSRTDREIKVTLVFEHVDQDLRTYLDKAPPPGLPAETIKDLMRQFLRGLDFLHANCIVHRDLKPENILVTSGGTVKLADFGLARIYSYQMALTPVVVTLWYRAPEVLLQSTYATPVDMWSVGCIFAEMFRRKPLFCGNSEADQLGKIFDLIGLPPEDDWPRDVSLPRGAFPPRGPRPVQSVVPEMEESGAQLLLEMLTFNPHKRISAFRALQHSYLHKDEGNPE
T4 sequence (Q9HBY8 whole entry): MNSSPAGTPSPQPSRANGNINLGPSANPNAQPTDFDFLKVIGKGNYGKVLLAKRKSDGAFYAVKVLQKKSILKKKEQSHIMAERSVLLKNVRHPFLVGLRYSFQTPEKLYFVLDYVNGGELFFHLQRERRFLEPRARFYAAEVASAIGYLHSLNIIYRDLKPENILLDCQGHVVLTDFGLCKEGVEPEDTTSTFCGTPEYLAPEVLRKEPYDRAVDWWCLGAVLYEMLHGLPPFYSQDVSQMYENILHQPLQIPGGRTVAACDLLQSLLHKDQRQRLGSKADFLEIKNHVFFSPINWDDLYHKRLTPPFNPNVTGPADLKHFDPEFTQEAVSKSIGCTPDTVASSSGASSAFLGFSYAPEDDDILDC
T19 sequence (Q9NYY3 whole entry): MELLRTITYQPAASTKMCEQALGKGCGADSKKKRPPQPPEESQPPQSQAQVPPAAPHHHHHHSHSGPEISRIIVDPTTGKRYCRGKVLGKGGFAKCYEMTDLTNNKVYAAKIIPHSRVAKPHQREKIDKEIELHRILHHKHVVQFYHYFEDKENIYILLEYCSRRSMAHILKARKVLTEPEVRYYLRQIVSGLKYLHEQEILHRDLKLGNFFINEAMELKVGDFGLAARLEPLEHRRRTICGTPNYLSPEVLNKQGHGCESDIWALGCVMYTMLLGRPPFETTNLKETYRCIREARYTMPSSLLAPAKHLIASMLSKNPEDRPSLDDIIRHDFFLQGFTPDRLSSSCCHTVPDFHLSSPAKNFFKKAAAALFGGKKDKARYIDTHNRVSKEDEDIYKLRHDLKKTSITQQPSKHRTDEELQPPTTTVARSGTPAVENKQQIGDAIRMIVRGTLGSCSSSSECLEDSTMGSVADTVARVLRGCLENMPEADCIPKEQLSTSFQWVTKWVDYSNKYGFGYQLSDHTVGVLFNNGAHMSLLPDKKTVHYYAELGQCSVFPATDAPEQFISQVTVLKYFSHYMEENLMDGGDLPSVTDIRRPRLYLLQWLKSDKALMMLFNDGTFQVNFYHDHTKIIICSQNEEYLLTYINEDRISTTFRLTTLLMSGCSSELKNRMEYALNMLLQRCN
T30 sequence (O75582 whole entry): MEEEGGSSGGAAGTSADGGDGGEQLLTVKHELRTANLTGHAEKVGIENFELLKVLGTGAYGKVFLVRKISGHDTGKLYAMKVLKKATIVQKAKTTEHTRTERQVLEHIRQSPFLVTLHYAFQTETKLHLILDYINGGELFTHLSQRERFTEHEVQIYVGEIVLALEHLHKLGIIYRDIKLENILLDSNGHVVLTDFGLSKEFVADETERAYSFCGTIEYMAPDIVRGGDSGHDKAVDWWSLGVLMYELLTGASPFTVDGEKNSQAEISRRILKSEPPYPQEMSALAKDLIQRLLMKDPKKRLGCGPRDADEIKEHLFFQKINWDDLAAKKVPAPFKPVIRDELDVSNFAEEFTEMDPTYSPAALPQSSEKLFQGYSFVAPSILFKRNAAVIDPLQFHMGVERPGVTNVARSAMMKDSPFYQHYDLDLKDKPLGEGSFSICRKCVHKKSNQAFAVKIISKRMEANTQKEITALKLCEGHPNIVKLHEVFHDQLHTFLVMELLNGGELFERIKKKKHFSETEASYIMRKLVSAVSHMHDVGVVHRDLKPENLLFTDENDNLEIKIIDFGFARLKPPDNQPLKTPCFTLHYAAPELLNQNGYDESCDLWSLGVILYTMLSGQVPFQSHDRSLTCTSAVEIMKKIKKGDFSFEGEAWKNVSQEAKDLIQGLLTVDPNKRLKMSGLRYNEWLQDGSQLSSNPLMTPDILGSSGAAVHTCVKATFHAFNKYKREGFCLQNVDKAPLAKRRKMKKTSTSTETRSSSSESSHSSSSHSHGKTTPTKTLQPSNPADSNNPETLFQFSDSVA
T2 sequence (P51451 whole entry): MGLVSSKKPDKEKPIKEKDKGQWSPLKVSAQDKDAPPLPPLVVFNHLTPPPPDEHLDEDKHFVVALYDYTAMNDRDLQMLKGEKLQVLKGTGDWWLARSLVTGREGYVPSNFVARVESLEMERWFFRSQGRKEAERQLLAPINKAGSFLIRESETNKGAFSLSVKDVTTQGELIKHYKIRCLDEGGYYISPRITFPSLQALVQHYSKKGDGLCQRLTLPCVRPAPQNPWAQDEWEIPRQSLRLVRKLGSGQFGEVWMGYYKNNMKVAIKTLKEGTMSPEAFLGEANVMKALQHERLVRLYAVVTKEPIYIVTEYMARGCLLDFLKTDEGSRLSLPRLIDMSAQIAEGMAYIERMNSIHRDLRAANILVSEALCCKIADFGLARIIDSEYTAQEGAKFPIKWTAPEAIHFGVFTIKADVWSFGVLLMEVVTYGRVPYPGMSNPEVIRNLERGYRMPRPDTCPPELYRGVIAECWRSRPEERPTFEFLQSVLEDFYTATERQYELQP
T5 sequence (O43353 whole entry): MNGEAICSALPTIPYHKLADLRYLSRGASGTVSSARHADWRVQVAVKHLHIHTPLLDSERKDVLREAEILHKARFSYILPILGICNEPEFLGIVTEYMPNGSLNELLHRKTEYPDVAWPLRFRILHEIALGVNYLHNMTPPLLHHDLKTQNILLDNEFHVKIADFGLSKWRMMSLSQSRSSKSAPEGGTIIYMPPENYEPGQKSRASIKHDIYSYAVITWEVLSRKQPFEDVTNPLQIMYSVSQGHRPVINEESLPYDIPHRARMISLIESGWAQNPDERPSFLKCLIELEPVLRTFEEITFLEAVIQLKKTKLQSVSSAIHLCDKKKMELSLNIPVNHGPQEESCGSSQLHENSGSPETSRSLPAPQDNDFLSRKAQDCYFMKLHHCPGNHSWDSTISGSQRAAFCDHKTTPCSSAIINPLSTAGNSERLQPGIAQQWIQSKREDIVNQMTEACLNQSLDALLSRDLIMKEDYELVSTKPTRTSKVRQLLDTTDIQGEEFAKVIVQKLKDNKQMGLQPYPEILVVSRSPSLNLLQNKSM
T12 sequence (Q9UBE8 whole entry): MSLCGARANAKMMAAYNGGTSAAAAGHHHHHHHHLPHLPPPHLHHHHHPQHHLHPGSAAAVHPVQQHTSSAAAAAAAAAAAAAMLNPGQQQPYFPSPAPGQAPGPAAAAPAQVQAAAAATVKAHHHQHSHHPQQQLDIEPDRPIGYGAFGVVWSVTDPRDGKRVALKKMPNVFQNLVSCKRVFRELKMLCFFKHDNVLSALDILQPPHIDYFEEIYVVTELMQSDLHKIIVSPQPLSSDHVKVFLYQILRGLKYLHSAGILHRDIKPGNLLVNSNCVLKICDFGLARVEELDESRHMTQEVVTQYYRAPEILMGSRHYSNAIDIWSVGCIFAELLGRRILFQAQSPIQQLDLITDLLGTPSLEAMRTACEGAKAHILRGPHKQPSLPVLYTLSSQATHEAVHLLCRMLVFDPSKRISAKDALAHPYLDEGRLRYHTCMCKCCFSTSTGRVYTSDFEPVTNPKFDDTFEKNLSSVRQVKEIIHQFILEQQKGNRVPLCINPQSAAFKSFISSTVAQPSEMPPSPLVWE
T3 sequence (Q16620 32-822): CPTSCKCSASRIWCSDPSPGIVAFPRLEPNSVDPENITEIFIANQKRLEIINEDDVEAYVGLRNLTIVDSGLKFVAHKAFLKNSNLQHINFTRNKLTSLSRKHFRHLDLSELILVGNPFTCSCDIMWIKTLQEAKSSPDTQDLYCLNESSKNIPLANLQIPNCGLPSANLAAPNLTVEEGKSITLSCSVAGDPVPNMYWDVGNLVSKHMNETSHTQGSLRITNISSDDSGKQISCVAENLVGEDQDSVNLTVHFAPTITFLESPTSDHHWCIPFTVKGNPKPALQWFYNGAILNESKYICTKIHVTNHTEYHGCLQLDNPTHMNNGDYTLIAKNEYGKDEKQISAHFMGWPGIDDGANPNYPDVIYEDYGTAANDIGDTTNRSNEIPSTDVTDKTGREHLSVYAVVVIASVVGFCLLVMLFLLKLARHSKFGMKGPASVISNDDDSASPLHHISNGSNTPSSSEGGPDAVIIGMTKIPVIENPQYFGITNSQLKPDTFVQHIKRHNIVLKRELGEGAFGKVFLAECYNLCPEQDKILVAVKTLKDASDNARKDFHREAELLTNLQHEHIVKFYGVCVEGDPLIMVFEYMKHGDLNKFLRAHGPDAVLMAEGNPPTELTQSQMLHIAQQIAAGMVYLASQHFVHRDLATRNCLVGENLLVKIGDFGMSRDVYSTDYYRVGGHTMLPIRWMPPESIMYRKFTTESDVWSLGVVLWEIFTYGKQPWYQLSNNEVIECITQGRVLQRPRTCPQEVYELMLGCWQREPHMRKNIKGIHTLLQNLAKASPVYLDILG

O=C(O)c1cc(C(F)(F)F)ccc1NCCc1c[nH]c2cc(Br)ccc12 [Compound 5, 2-((2-(6-Bromo-1H-indol-3-yl)ethyl)amino)−5-(trifluoromethyl)benzoic Acid]
activity at 10 µM [1]: 65.1 ± 1.6% | activity at 10 µM [2]: 92.7 ± 1.3% | activity at 10 µM [3]: 45.4 ± 7.4% | activity at 10 µM [4]: 63.9 ± 2% | activity at 10 µM [5]: 109 ± 2.9% | activity at 10 µM [6]: 74.8 ± 2.2% | activity at 10 µM [7]: 84.1 ± 0.4% | activity at 10 µM [8]: 97.4 ± 0.8% | activity at 10 µM [9]: 88.2 ± 0.3% | activity at 10 µM [10]: 88.4 ± 1.1% | activity at 10 µM [11]: 92.1 ± 0.7% | activity at 10 µM [12]: 81.4 ± 4.1% | activity at 10 µM [13]: 102 ± 3% | activity at 10 µM [14]: 87.7 ± 2.3% | activity at 10 µM [15]: 89.7 ± 2.7% | activity at 10 µM [16]: 103 ± 3.6% | activity at 10 µM [17]: 90.2 ± 1.5% | activity at 10 µM [18]: 77.6 ± 0.1% | activity at 10 µM [19]: 67.4 ± 0.7% | activity at 10 µM [20]: 90.7 ± 1.5% | activity at 10 µM [21]: 84.5 ± 2.5% | activity at 10 µM [22]: 81.9 ± 1.6% | activity at 10 µM [23]: 91.2% | activity at 10 µM [24]: 79 ± 0.9% | activity at 10 µM [25]: 75.2 ± 1.8% | activity at 10 µM [26]: 95.2 ± 1.8% | activity at 10 µM [27]: 100.9 ± 0.2% | activity at 10 µM [28]: 83.5 ± 1.1% | activity at 10 µM [29]: 124 ± 1.4% | activity at 10 µM [30]: 82.2 ± 0.5% | activity at 10 µM [31]: 69.7 ± 3% | activity at 10 µM [32]: 92.7 ± 3.3% | activity at 10 µM ([33]; CDK4/CYCLIN D1): 80.1 ± 2.6% | activity at 10 µM ([33]; CDK4/CYCLIN D2): 29.1 ± 0.1% | activity at 10 µM ([33]; CDK4/CYCLIN D3): 82.9 ± 0.6% | activity at 10 µM [34]: 106.5 ± 0.1% | activity at 10 µM [35]: 52.1 ± 1.5% | activity at 10 µM ([36]; CDK1/CYCLIN E): 60.2 ± 0.3% | activity at 10 µM ([36]; CDK1/cyclin A): 95.4 ± 0.8%
